For assay [1], the system named is deseeded pea pericarps. Conditions: hormone applied to deseeded pericarps, split-pericarp assay; literature (Reinecke et al. 1995, 1999; Ozga and Reinecke 1999; Johnstone et al. 2005); cited from earlier work.
Assay [2] concerns PsAFB6 transcript abundance in pericarp. Description: Pea split-pericarp assay, hormone applied to deseeded pericarps, PsAFB6 transcript abundance by qRT-PCR. The note with it: deseeded 2 DAA pericarps, 50 μM hormone. Format: in vivo, Pisum sativum. The method, then: (§1) To examine the hormonal regulation of pericarp AFB mRNA levels, the pea split-pericarp assay was used (Ozga et al., 1992). Fruit at 2 DAA were split along the dorsal suture. Seeds were removed and pericarps were left for 12 hours prior to hormone application to reduce residual seed effects. […] For split-pod, no seed controls (SPNS), 30 μL of 0.1% aqueous Tween 80 was applied. For split-pod controls (SP), seeds were not removed after the dorsal suture was opened, but 30 μL of 0.1% aqueous Tween 80 was applied 12 hours after pericarp splitting. As a further control for the split-pericarp procedure, intact pods were also harvested at the appropriate times. All fruit subjected to split-pericarp treatments were covered with plastic to maintain humidity, and all manipulations were carried out while pericarps remained on the plant. Intact controls were harvested at the 0 hour and 12 hour treatment timing, while all split-pericarp treatments were harvested at 12, 14, 20, and 24 hours after pericarp splitting (0, 2, 8, and 12 hours after hormone treatment).
(§2) All transcript quantification was performed on a StepOnePlus sequence detector (Applied Biosystems). Reverse transcription and quantification was performed using TaqMan One-Step RT-PCR Master Mix (Applied Biosystems; final concentration 1×) and 200 ng of DNAse treated total RNA (final concentration 8 ng μL^−1) in duplicate in a final volume of 25 μL per well. The final concentration of forward and reverse primers was 300 nM each, and the final concentration of probe was 100 nM. Reverse transcription was carried out for 30 minutes at 48° C. DNA polymerase antibody was denatured at 95° C. for 10 minutes. Quantification was carried out for 40 cycles of the following program: denaturation at 95° C. for 15 seconds, primer annealing and extension at 60° C. for 1 minute. Probes were labelled at the 5′ end with FAM (6-carboxyfluorescein) and at the 3′ end with the MGB quencher (Applied Biosystems).
(§3) Relative transcript levels were calculated using the ΔCt method (Livak and Schmittgen, 2001) using the following formula, where X is an arbitrary value equal to or greater than the highest assayed Ct value and E is the reaction efficiency for the amplicon in question: Transcript abundance=(1+E)^X−Ct) (1)
(Real-time PCR tracks product formation cycle by cycle.)

For assay [3], the system named is PsAFB2 transcript abundance in pericarp. Description: Pea split-pericarp assay, hormone applied to deseeded pericarps, PsAFB2 transcript abundance by qRT-PCR. Format: in vivo, Pisum sativum. The note with it: deseeded 2 DAA pericarps, 50 μM hormone applied 12 h after deseeding, 2, 8 and 12 h after application. The method, then: as §1
as §2, with “DNA polymerase antibody was denatured at 95° C. for 10 minutes.” left out, “Probes were labelled at the 5′ end with FAM (6-carboxyfluorescein) and at the 3′ end with the MGB quencher (Applied Biosystems).” left out
as §3

Assay [4] has as its system deseeded pea pericarps. The assay can be described thus: Deseeded pea pericarp growth / fruit abortion after hormone application (split-pericarp). Format: in vivo, Pisum sativum. Conditions: hormone applied to deseeded ovaries.
Where [5] appears, read: throughout the time course (2 to 12 h after application).

Turning to `O=C(O)Cc1c[nH]c2cccc(Cl)c12` [4-Cl-IAA, 4-chloroindole-3-acetic acid], in the assay with deseeded pea pericarps [1], the deseeded pericarp growth entry is on record as “stimulated pericarp growth”. Also, the “effect on pericarp PsAFB6 mRNA abundance” value in assay [2] (2 hours after application) is on record as “initially reduced”; in assay [2] (setting [5]) it was “reduced PsAFB6 mRNA abundance to levels similar to those found in SP controls”. Moreover, the “effect on steady-state PsAFB2 transcript abundance” value in assay [3] was “did not significantly affect”. Further, the “abortion of deseeded fruits” value with deseeded pea pericarps [4] was “prevention of fruit abortion”.
For `Cc1cccc2[nH]cc(CC(=O)O)c12` [4-Me-IAA], the deseeded pericarp growth result in the assay with deseeded pea pericarps [1] is “capable of stimulating the expansion of deseeded pericarps, but not to the same extent as 4-Cl-IAA”.
Turning to `C=C1C[C@]23C[C@@]1(O)CC[C@H]2[C@@]12C=C[C@H](O)[C@@](C)(C(=O)O1)[C@H]2[C@@H]3C(=O)O` [GA3], the deseeded pericarp growth result with deseeded pea pericarps [1] is “stimulate deseeded pericarp growth”. Moreover, in assay [2] (setting [5]), the “effect on pericarp PsAFB6 mRNA abundance” value is “no effect”. Besides, the “effect on steady-state PsAFB2 transcript abundance” value in assay [3] is reported as “did not significantly affect”.
Take `C=C1C[C@]23C[C@@]1(O)CC[C@H]2[C@@]12CC[C@H](O)[C@@](C)(C(=O)O1)[C@H]2[C@@H]3C(=O)O` [GA1]: the deseeded pericarp growth result in the assay with deseeded pea pericarps [1] is reported as “stimulate deseeded pericarp growth”.
Consider `O=C(O)Cc1c[nH]c2ccccc12` [IAA, indole-3-acetic acid], for which, in the assay with deseeded pea pericarps [1], the deseeded pericarp growth entry is “further decreases growth”. Moreover, in assay [2] (8 hours to 12 hours after application), the “effect on pericarp PsAFB6 mRNA abundance” value is “increased to that observed in the SPNS pericarps”. Also, the “effect on steady-state PsAFB2 transcript abundance” value in assay [3] was “did not significantly affect”. For the same compound, the “abortion of deseeded fruits” value in the assay with deseeded pea pericarps [4] was “nor does it prevent the abortion of deseeded fruits”.

Source of the values: patent US9441237B2, “Auxin receptors” (THE GOVERNORS OF THE UNIVERSITY OF ALBERTA, priority 2010, dated 2016).
